Positions count from the first letter of the chain named. Names and notes keep the numbering of the source.
Columns and labels:
[1] = molecular target: T1, CtUba4-CtUrm1 (Thermochaetoides thermophila, UniProt G0SC54); assay: GST pull-down of CtUba4 with GST-CtUrm1 (nucleotide-stabilised complex); type: binding; conditions: 1 mM nucleotide, 2 mM MgCl2, pH 6.0, 37 °C
T1 construct: gene uba4; full-length CtUba4 (1-444) plus CtUrm1, both from E. coli, tags TEV-cleaved (GST kept on CtUrm1 in pull-down); with Ubiquitin-related modifier 1

[2] = molecular target: T2, CtUba4 AD (Thermochaetoides thermophila, UniProt G0SC54); assay: thermal shift assay (SYPRO Orange); type: binding; conditions: 1 mM AMP, 2 mM MgCl2, 2 mM DTT, pH 7.5
T2 construct: gene uba4; adenylation domain aa 1-290, E. coli, His6-GST tag TEV-cleaved, dimer

[3] = molecular target: T3, CtUba4 (full length) (Thermochaetoides thermophila, UniProt G0SC54); assay: thermal shift assay (SYPRO Orange); type: binding; conditions: 1 mM AMP, 2 mM MgCl2, 2 mM DTT, pH 7.5
T3 construct: gene uba4; full length aa 1-444, codon-optimised, E. coli BL21(DE3) pRARE, His6 or His6-GST tag TEV-cleaved, homodimer

[4] = molecular target: T1, CtUba4-CtUrm1; assay: pyrophosphate release (fluorometric kit); Malachite Green phosphate; type: biochemical; conditions: 20 μM ATP, CtUrm1 7.5 μM, 0.5 mM MgCl2, pH 6.0, 37 °C
[5] = molecular target: T4, CtUba4-CtUrm1 (Thermochaetoides thermophila, UniProt G0SC54, N307A/M308A); assay: as above; type: biochemical; conditions: 20 μM ATP, CtUrm1 7.5 μM, 0.5 mM MgCl2, pH 6.0, 37 °C
T4 construct: gene uba4; full-length CtUba4 (1-444) plus CtUrm1, both from E. coli, tags TEV-cleaved (GST kept on CtUrm1 in pull-down); with Ubiquitin-related modifier 1
T4 sequence (G0SC54 entry or part of it N307A/M308A, one chain of several): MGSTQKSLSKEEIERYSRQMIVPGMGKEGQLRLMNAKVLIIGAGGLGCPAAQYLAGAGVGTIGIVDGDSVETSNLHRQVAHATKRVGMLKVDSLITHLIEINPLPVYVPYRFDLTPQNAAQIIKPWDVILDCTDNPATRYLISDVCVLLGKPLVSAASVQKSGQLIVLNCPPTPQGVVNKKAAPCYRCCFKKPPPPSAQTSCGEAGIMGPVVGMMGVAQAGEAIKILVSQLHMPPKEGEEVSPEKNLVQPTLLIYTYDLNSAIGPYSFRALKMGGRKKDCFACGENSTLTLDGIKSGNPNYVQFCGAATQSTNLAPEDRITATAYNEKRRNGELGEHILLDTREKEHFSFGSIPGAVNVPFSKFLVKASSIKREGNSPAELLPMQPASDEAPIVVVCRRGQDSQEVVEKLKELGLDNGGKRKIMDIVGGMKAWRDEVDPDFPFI

[6] = molecular target: T5, ADlinker 1-321 (with CtUrm1) (Thermochaetoides thermophila, UniProt G0SC54); assay: as above; type: biochemical; conditions: 20 μM ATP, CtUrm1 7.5 μM, 0.5 mM MgCl2, pH 6.0, 37 °C
T5 construct: gene uba4; adenylation domain plus complete linker, aa 1-321, E. coli; assayed with CtUrm1; with Ubiquitin-related modifier 1
T5 sequence (G0SC54 1-321): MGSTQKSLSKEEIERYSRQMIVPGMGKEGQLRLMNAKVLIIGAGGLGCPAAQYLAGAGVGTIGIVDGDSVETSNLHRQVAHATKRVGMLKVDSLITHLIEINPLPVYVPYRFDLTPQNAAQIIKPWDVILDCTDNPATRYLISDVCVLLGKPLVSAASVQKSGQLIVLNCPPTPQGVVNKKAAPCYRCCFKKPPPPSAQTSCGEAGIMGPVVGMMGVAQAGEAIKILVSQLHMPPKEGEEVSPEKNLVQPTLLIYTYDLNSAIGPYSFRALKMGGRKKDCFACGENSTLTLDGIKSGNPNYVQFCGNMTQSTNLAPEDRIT
T5 sequence (G0SE11 1-110 partner): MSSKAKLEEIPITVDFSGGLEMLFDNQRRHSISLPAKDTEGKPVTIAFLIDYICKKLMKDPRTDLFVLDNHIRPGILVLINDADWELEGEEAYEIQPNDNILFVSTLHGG

[7] = molecular target: the molecule itself; assay: SEC + SEC-MALS; SEC profiles and static light scattering (RALS/LALS) after Superdex 75 10/300 GL; 1 mg/ml; 20 mM Tris pH 7.5, 150 mM NaCl, 1 mM DTT
[8] = molecular target: the molecule itself; assay: crystal structure; apo full-length CtUba4, no nucleotide; 50 mM HEPES pH 6.9-7.0, PEG 4000, 21°C; 2.2 Å
[9] = molecular target: the molecule itself; assay: crystal structure; CtUba4 C202K, CtUrm1 and ATP (1.00:1.25:2.25) incubated in 100 mM MES pH 6.0, 100 mM NaCl, 2 mM MgCl2 at 37°C for 30 min, complex isolated on Superdex 200 Increase; crystals in 0.1 M HEPES pH 7.5, 20% PEG 3350; 3.15 Å

Molecule: Nc1ncnc2c1ncn2[C@@H]1O[C@H](COP(=O)(O)OP(=O)(O)NP(=O)(O)O)[C@@H](O)[C@H]1O [AMP-PNP]
- GST pull-down of CtUba4 with GST-CtUrm1 (nucleotide-stabilised complex) [1]: complex is stabilized most efficiently in the presence of ATP and AMP‐PNP

Molecule: Nc1ncnc2c1ncn2[C@@H]1O[C@H](COP(=O)(O)O)[C@@H](O)[C@H]1O [AMP]
- melting temperature [2]: AMP increased the thermal stability of full‐length Uba4 and the AD alone
- melting temperature [3]: AMP increased the thermal stability of full‐length Uba4 and the AD alone

Molecule: Nc1ncnc2c1ncn2[C@@H]1O[C@H](COP(=O)(O)OP(=O)(O)OP(=O)(O)O)[C@@H](O)[C@H]1O [ATP]
- pyrophosphate release (fluorometric kit); Malachite Green phosphate [4]: ATP hydrolysis capacity of CtUba4 WT and mutants in the presence of CtUrm1
- pyrophosphate release (fluorometric kit); Malachite Green phosphate [5]: mutations of the linker residues Asn307 and Met308
- pyrophosphate release (fluorometric kit); Malachite Green phosphate [6]: it stimulates the ATP hydrolysis activity of the AD in the presence of Urm1

B1: CtUba4 adenylation domain (1-290) (domain or fragment, Chaetomium thermophilum, UniProt G0SC54 1-290, looked up)
chain: MGSTQKSLSKEEIERYSRQMIVPGMGKEGQLRLMNAKVLIIGAGGLGCPAAQYLAGAGVGTIGIVDGDSVETSNLHRQVAHATKRVGMLKVDSLITHLIEINPLPVYVPYRFDLTPQNAAQIIKPWDVILDCTDNPATRYLISDVCVLLGKPLVSAASVQKSGQLIVLNCPPTPQGVVNKKAAPCYRCCFKKPPPPSAQTSCGEAGIMGPVVGMMGVAQAGEAIKILVSQLHMPPKEGEEVSPEKNLVQPTLLIYTYDLNSAIGPYSFRALKMGGRKKDCFACGENSTLT
notes: Uba4 of Chaetomium thermophilum, UniProt G0SC54, adenylation domain residues 1-290; source: E. coli BL21(DE3) pRARE, purified (Ni-NTA, TEV cleavage, SEC); not shown: His6, N-terminal, cleaved; GST, N-terminal, cleaved
- stoichiometry N [7]: 2

B2: CtUba4 rhodanese-like domain (319-444) (domain or fragment, Chaetomium thermophilum, UniProt G0SC54 319-444, looked up)
chain: RITATAYNEKRRNGELGEHILLDTREKEHFSFGSIPGAVNVPFSKFLVKASSIKREGNSPAELLPMQPASDEAPIVVVCRRGQDSQEVVEKLKELGLDNGGKRKIMDIVGGMKAWRDEVDPDFPFI
notes: Uba4 of Chaetomium thermophilum, UniProt G0SC54, rhodanese-like domain residues 319-444; also called CtUba4 RHD; RHD; source: E. coli BL21(DE3) pRARE, purified (Ni-NTA, TEV cleavage, SEC Superdex 75); not shown: His6, N-terminal, cleaved; GST, N-terminal, cleaved
- stoichiometry N [7]: 2

B3: Chaetomium thermophilum Uba4 (ubiquitin-like protein activator 4), full length, wild type (enzyme, UniProt G0SC54 1-444, looked up)
chain: MGSTQKSLSKEEIERYSRQMIVPGMGKEGQLRLMNAKVLIIGAGGLGCPAAQYLAGAGVGTIGIVDGDSVETSNLHRQVAHATKRVGMLKVDSLITHLIEINPLPVYVPYRFDLTPQNAAQIIKPWDVILDCTDNPATRYLISDVCVLLGKPLVSAASVQKSGQLIVLNCPPTPQGVVNKKAAPCYRCCFKKPPPPSAQTSCGEAGIMGPVVGMMGVAQAGEAIKILVSQLHMPPKEGEEVSPEKNLVQPTLLIYTYDLNSAIGPYSFRALKMGGRKKDCFACGENSTLTLDGIKSGNPNYVQFCGNMTQSTNLAPEDRITATAYNEKRRNGELGEHILLDTREKEHFSFGSIPGAVNVPFSKFLVKASSIKREGNSPAELLPMQPASDEAPIVVVCRRGQDSQEVVEKLKELGLDNGGKRKIMDIVGGMKAWRDEVDPDFPFI
notes: Uba4 of Chaetomium thermophilum, UniProt G0SC54, full length aa 1-444; Expressed from pETM30 (N-terminal His6 and GST) and pETM11 (N-terminal His6); tags cleaved with TEV; Codon-optimised gene; also called CtUba4; CtUba4 FL; source: E. coli BL21(DE3) pRARE, purified (Ni-NTA, TEV cleavage, second Ni-NTA, SEC Superdex 200); not shown: His6, N-terminal, cleaved
- stoichiometry N [8]: 2

B4: CtUba4 C202K, full length (enzyme, Chaetomium thermophilum, UniProt G0SC54 1-444, looked up)
chain: B3 chain with C202K
notes: Uba4 of Chaetomium thermophilum, UniProt G0SC54, full length aa 1-444 with C202K; With Urm1 and ATP the epsilon-amino group of Lys202 forms a non-hydrolysable iso-peptide bond with Gly111 of Urm1; The RHD is present in the crystals but has no density; source: E. coli BL21(DE3) pRARE, purified (Ni-NTA, TEV cleavage, SEC Superdex 200); not shown: His6, N-terminal, cleaved
- stoichiometry N [9]: 2

Source: publication PMC7527816, “Molecular basis for the bifunctional Uba4–Urm1 sulfur‐relay system in tRNA thiolation and ubiquitin‐like conjugation” (The EMBO Journal, 2020)
